The text below walks through data of patent US4325970A, “15-Acetyl-prostaglandins” (Hoffmann-La Roche Inc., priority 1980, dated 1982).

In this experiment the test system is gastric secretion stimulated by histamine. The experiment is described as follows: Heidenhain pouch dog test, histamine-stimulated gastric secretion. The format is in vivo, dog (mongrel). As to the method:
Compound A was next tested at a dose level which would cause a definite and reproducible pharmacological effect.
The Heindenhain pouch test involved collecting gastric juice from the denervated (Heidenhain) gastric pouches of mongrel dogs. This collection was accomplished by gravity drainage, using a specially manufactured titanium cannula. Gastric secretion was stimulated by intravenous infusion of a saline solution of histamine hydrochloride, 20 μg/kg/hr, injected at a rate of 1 ml/min. This submaximal stimulation elicited acid secretion approximately 30% of maximal, without the tachycardia commonly observed with higher doses of histamine. Samples of gastric juice were collected at 15-min intervals. Compound A was administered orally via a 1/4 oz. hard gelatin capsule. The animals were dosed 90 min after the start of histamine infusion and the test continued for 9 hours post-drug administration. The dogs were concious and stood quietly in Pavlov slings during the experiments. Sample volume was measured, and pH, acid concentration (mEq/L), acid output (mEq/15-min periods), as well as pepsin concentration and output were determined. Vital signs were monitored throughout the test and kennel observations continued for 24 hr.
The indexes chosen to assess drug efficacy were acid concentration and acid output. These parameters were expressed as a percentage of the average of the three 15-min values prior to dosage. […] […] Values of pH increased from a control average of 1.0 to a maximum of 2.0 six hours post drug. Analysis of control data for this group of Heindenhain-pouch dogs indicated no significant decrease in gastric juice volumes from control levels during these extended studies. In these control animals, pH values averaged 0.9 throughout the entire experiment. Therefore, no significant decreases in acid concentration or output would be expected in the control results.

Consider `CCCCC(C)(C)[C@@H](/C=C/C1[C@H](C)CC(=O)[C@@H]1C/C=C\CCCC(=O)O)OC(C)=O` (stereo in doubt) [Compound A, (8R,11R,12S,15R,5Z,13E)-15-acetyloxy-11,16,16-trimethyl-9-oxoprosta-5,13-dien-1-oic acid], for which, under “100 μg/kg p.o.”, the activity result is listed as “potential for significant activity”. Further, the “dogs with 50% or better acid reduction for more than two hours” value (100 μg/kg p.o., six dogs) is on record as “Three of the six dogs”. Besides, the acid reduction (100 μg/kg p.o., in three of the six dogs, for more than two hours post dosage) is on record as at least 50%. For the same compound, the “duration of 50% or better acid reduction” value (100 μg/kg p.o., three of the six dogs) is “more than two hours”. Besides, the “activity compared with 500 μg/kg level” value (250 μg/kg oral) is “almost as good as that found at the 500 μ/kg level”. Moreover, for the setting “500 μg/kg oral”, the antisecretory activity result is given as “marked antisecretory activity of long duration”, the “duration of >60% inhibition of acid output” value was above 9 h and the “start of >60% inhibition of acid output after administration” value was found to be 45 min. Besides, the “inhibition of acid output” value (500 μg/kg oral, beginning 45 minutes after administration, longer than 9 hours, mean=0.38 mEq/15 minutes) is recorded as above 60%. Further, the “reduction of the acid concentration from control values” (500 μg/kg oral, constant between 4 and 5 3/4 hours post drug, control mean=136 mg/L as printed) is on record as at least 50%. In addition, the “maximum pH of gastric juice” value (500 μg/kg oral, six hours post drug, from a control average of 1.0) is 2.0.
